# Data taken from patent publication US20100113550A1, “New Crystal Forms” (BIAL - PORTELA AND CA, S.A., priority 2006, published 2010).
# “Also recorded” adds a separate entry of the source. Read-outs that look alike come from different tables or passages of the source.
# Tests used:
# Assay type in all cases: physicochemical
# [1] = Approximate solubilities (solvent added until a solution forms); conditions: for solubility: read-out: Solubility (approximate)
# Description: Approximate solubilities of compound 1, Form A in aqueous mixtures containing high concentrations of organic solvents are given in Table 1. [table]
# [2] = Interconversion studies of Forms A and C (slurries, XRPD); conditions: interconversion in ethanol and acetone:water 99:1
# Procedure: A slurry of compound 1, Form A, was prepared in a given solvent and loaded on an orbit shaker at either ambient or elevated temperature for at least 1 day. The liquid phase of the slurry was drawn off with a pipette and filtered through a 0.2-μm filter. A slurry containing compound 1 forms A and C was prepared using the filtered liquid phase from the Form A slurry. The mixture was then loaded on an orbit shaker in a sealed vial at either ambient or elevated temperature for 1 or 7 days. The solids were isolated by vacuum filtration or by drawing the liquid phase off with a pipette and allowing the solids to air dry at ambient conditions prior to analysis. The resulting Forms were characterised by XRPD.
# [3] = RH stability: storage at controlled relative humidity or drying, checked by XRPD and for deliquescence
# [4] = as above; conditions: high relative humidities, long periods of time
# Description: Form A samples were stored at lower relative humidities of approximately 9-11, 23 and 32% RH and analyzed by XRPD and Karl-Fischer titration analysis after four weeks (Tables 30 and 31). The samples appeared to be Form A by XRPD. […] Note that the water content in the samples at 23 and 32% RH was slightly higher compared to the initial batch of Form A.
# Form X samples were stored at relative humidities of approximately 43, 75 and 90% RH and analyzed by XRPD and Karl-Fischer titration analysis after five weeks (Tables 34 and 35).
compound,measurement,setting,value
"Cl.NCCc1c[nH]c(=S)n1[C@H]1COc2c(F)cc(F)cc2C1 [Form C, (R)-5-(2-Aminoethyl)-1-(6,8-difluorochroman-3-yl)-1,3-dihydroimidazole-2-thione hydrochloride]",solubility,"[1]; 1,4-dioxane, organic solvent or mixture, 1,4-dioxane",< 1000 µg/mL
same,solubility,"[1]; 1,4-dioxane:water 9:1, organic solvent or mixture, 1,4-dioxane:water 9:1",> 22000 µg/mL
same,Solubility (approximate),"[1]; 1,4-dioxane:water 99:1, hydrochloride",<22000 µg/mL
same,Solubility (approximate),"[1]; 2,2,2-trifluoroethanol, hydrochloride",1700 µg/mL
same,solubility,"[1]; THF:water 9:1, organic solvent or mixture, THF:water 9:1",> 23000 µg/mL
same,solubility,"[1]; THF:water 99:1, organic solvent or mixture, THF:water 99:1",< 24000 µg/mL
same,Solubility (approximate),[1]; acetone:water 90:10 (9:1),>23000 µg/mL
same,Solubility (approximate),"[1]; acetone:water 99:1, hydrochloride",<24000 µg/mL
same,Solubility (approximate),"[1]; acetone, hydrochloride",<1000 µg/mL
same,solubility,"[1]; acetonitrile, organic solvent or mixture, acetonitrile",< 1000 µg/mL
same,solubility,"[1]; acetonitrile:water 4:1, organic solvent or mixture, acetonitrile:water 4:1",> 40000 µg/mL
same,Solubility (approximate),"[1]; acetonitrile:water 90:10 (9:1), hydrochloride",<25000 µg/mL
same,Solubility compared with the other forms (in words),[1]; comparison between forms,lower compared to the solubilities of Form A
same,solubility,"[1]; dichloromethane, organic solvent or mixture, dichloromethane",< 1000 µg/mL
same,solubility,"[1]; diethyl ether, organic solvent or mixture, diethyl ether",< 1000 µg/mL
same,Solubility (approximate),"[1]; ethanol:water 90:10 (9:1), hydrochloride",<22000 µg/mL
same,Solubility (approximate),"[1]; ethanol, hydrochloride",2000 µg/mL
same,solubility,"[1]; ethyl acetate, organic solvent or mixture, ethyl acetate",< 1000 µg/mL
same,solubility,"[1]; hexafluoro isopropanol, organic solvent or mixture, hexafluoro isopropanol",1000 µg/mL
same,solubility,"[1]; hexane, organic solvent or mixture, hexane",< 1000 µg/mL
same,Solubility (approximate),"[1]; iso-propanol, hydrochloride",<1000 µg/mL
same,Solubility (approximate),"[1]; methanol, hydrochloride",21000 µg/mL
same,Solubility (approximate),"[1]; methyl ethyl ketone, hydrochloride",<1000 µg/mL
same,solubility,"[1]; n-propanol, organic solvent or mixture, n-propanol",< 1000 µg/mL
same,Solubility by kind of solvent (in words),"[1]; organic solvents and aqueous mixtures, hydrochloride","poorly soluble in most organic solvents, except in methanol; also recorded: slightly soluble in ethanol, hexafluoroisopropanol, 2,2,2-trifluoroethanol, and some aqueous mixtures"
same,Solubility (approximate),"[1]; tetrahydrofuran (THF), hydrochloride",<1000 µg/mL
same,solubility,"[1]; toluene, organic solvent or mixture, toluene",< 1000 µg/mL
same,solubility,[1]; water,23000 µg/mL
same,Relative thermodynamic stability of the forms,[2],more thermodynamically stable than Form A
same,Hygroscopicity,[3],non-hygroscopic
same,"RH stability, XRPD result","[3]; 95% relative humidity, ~2 months",did not change
same,Deliquescence,"[3]; approximately 65% relative humidity, one week",did not deliquesce
same,Deliquescence,"[3]; approximately 90% relative humidity, 11 days",did not deliquesce
same,Stability under high relative humidities,[4],remain stable
